Measured values taken from patent US10865222B2, “Neisseria gonorrhoeae therapeutic based on CMP-nonulosonate sugars” (priority 2014, dated 2020).
“Also recorded” adds a separate entry of the source.

What was measured:
[1] = molecular target: T1, gonococcal LOS sialyltransferase (Lst) (Neisseria gonorrhoeae, UniProt P72074); type: cell-based, N. gonorrhoeae; conditions: CMP salt 30 μM (20 μg/ml), 2 h at 37° C.
T1 construct: served as substrates for gonococcal Lst in the context of live bacteria; endogenous in cells; host or cells: N. gonorrhoeae F62 ΔlgtD (live bacteria)
Protocol: FIG. 1. Substrate specificity of gonococcal LOS sialyltransferase (Lst) N. gonorrhoeae strain F62 ΔIgtD was grown in standard gonococcal liquid media alone (‘No sialic acid’) or in media supplemented with CMP salts of the indicated sialic acid or nonulosonic acid, each at a concentration of 20 μg/ml (˜30 μM), for 2 h at 37° C. Bacteria were washed, pellets treated with protease K, lysed in 4×LDS buffer and lysates were separated on 12% Bis-Tris gels using MES running buffer. LOS was transferred to a PVDF membrane and probed with mAb 3F11 that recognizes the lacto-N-neotetraose only in the non-sialylated state; the addition of a sialic acid or nonulosonate residue abrogates mAb 3F11 binding (upper panel). LOS was also visualized by silver staining (middle panel). Sialylation or nonulosonate (NulO) modification was also quantified using whole cell ELISA with mAb 3F11 (lower graph).
To define the substrate specificity of gonococcal LOS sialyltransferase, N. gonorrhoeae F62 ΔIgtD was grown in media alone, or media that contained the CMP-activated derivatives of 7 nonulosonates (listed in Table 1), each at a concentration of 30 μM (20 μg/ml). Following incubation for 2 h at 37° C., bacteria were washed, lysed with protease K/LDS sample buffer and separated on 12% Bis-tris gels. Blots were probed with mAb 3F11, which binds to the terminal lactosamine residue of lacto-N-neotetraose (LNT); any extension beyond the terminal Gal (in this instance with a nonose) would abrogate 3F11 binding. […] Whole cell ELISA with mAb 3F11 confirmed results of western blotting (FIG. 1, lower graph).
Bacteria (F62 ΔIgtD) grown overnight on chocolate agar plates were suspended in gonococcal liquid media supplemented with IsoVitaleX (11) that contained specified concentrations of the CMP-nonulosonate. Bacteria were then incubated at 37° C. for the period specified in each experiment.
Gonococcal lysates treated with protease K (100 μg/ml) and NuPAGE® LDS Sample Buffer (4×) (Invitrogen) were separated on NuPAGE® 12% Bis-Tris (Invitrogen) gels using Novex® MES running buffer (Invitrogen) followed by sliver staining with the Bio-Rad Silver Stain Kit, or were transferred to an Immobilon PVDF membrane (Millipore). Membranes were blocked with PBS/1% milk and probed with tissue culture supernatants that contained mAb 3F11. mAb 3F11-reactive LOS bands were disclosed with anti-mouse IgM conjugated to alkaline phosphatase followed by the addition of BCIP®/NBT-Purple Liquid Substrate (Sigma).

[2] = tested on: N. gonorrhoeae F62 ΔIgtD; assay: Flow cytometry for factor H binding to bacteria; type: cell-based
Protocol: FIG. 3. Effects of LOS modification with various nonulosonate analogues on fH binding to N. gonorrhoeae. N. gonorrhoeae F62 ΔIgtD was grown in media alone, or media supplemented with 20 μg/ml (˜30 μM) of each of the indicated CMP-nonulosonates. Binding of bacteria to fH (10 μg/ml) was measured by flow cytometry using polyclonal goat anti-human fH. The control indicates reaction mixtures that lacked fH. Y-axis, median fluorescence of fH binding. The mean (SD) of 2 independent repeats is shown.
FIG. 7. […] A. N. gonorrhoeae F62 ΔIgtD was incubated in media containing CMP-Neu5Ac (20 μg/ml), followed […] by the addition of either CMP-Neu5Ac9Az or CMP-Leg5Ac7Ac (20, 2 or 0.2 μg/ml). Bacteria were grown for 2 h and fH binding detected by FACS using polyclonal goat anti-human fH. The Y-axis represents median fluorescence. The mean (SEM) of two independent observations is shown. B. Development of serum resistance lags behind fH binding when measured as a function of time of exposure of bacteria to CMP-Neu5Ac. CMP-Neu5Ac (20 μg/ml) was added to media containing F62 ΔIgtD and bacteria were taken at the time points indicated on the X-axis and assayed for fH binding by FACS with anti-fH mAb 90× (left Y-axis; median fluorescence (SEM)), or tested for its ability to resist killing by 10% NHS (right Y-axis; percent survival). The data represent 2-3 independent experiments. C. Representative histograms of a fH binding FACS experiment.
The addition of a terminal Neu5Ac residue to LNT-expressing LOS enhances binding of the alternative pathway inhibitor, factor H, which contributes to the ability of sialylated gonococci to resist killing by complement (7). fH binding to N. gonorrhoeae F62 ΔIgtD grown in the presence of each of the CMP-nonulosonates (20 μg/ml or 30 μM) was examined (FIG. 3). […] Reducing the CMP-nonulosonate concentrations in growth media to 2 μg/ml (3 μM) yielded similar fH binding results (FIG. 9B). Further, modification of LOS with Neu5Ac or Neu5Gc yielded similar amounts of fH binding over CMP-sialic acid concentrations ranging from 0.5 to 4 μg/ml, with near maximal fH binding observed even at the lowest concentration tested (FIG. 9C).
fH binding to bacteria was performed using flow cytometry as described previously (14). Briefly, bacteria (F62 ΔIgtD) were harvested from chocolate agar plates and grown in liquid media that contained the specified concentration of the CMP-nonulosonate as described above. Bacteria were then washed with Hanks Balanced Salt Solution (HBSS) containing 1 mM Ca^2+ and 1 mM Mg^2+ (HBSS^++) and incubated with fH purified from human plasma (Complement Technology, Inc.; concentration specified for each experiment). Bound fH was detected using either anti-fH mAb (Quidel, catalog no. A254 (mAb 90×)) or goat anti-human fH, followed by FITC conjugated anti-mouse IgG or anti-goat IgG, respectively (Sigma); both Abs had similar performance characteristics. All reaction mixtures were carried out in HBSS^++/1% BSA in a final volume of 50 μl. Flow cytometry was performed using a FACSCalibur instrument (Becton Dickinson) and data were analyzed using FlowJo (version 7.2.5; Tree Star, Inc.).

[3] = tested on: N. gonorrhoeae F62 ΔIgtD; type: cell-based
Protocol: FIG. 2. […] N. gonorrhoeae F62 ΔIgtD was grown in media alone (no CMP-sialic acid added), or media that contained 20 μg/ml (˜30 μM) of each of the indicated CMP-nonulosonates. Resistance of bacteria to complement-dependent killing in the presence of 3.3%, 6.7% or 10% normal human serum (NHS) was measured in serum bactericidal assays.
FIG. 5. […] N. gonorrhoeae F62 ΔIgtD was suspended in media containing 20 μg/ml (˜30 μM) CMP-Neu5Ac. Following 15 min of incubation at 37° C., CMP-Neu5Ac9Az or CMP-Leg5Ac7Ac (at concentrations of 20, 2 or 0.2 μg/ml final) were added and bacteria were incubated for 2 h. Serum bactericidal assays were then performed using 3.3% (solid black bars) or 10% (hatched bars) NHS. Controls included bacteria in media that lacked any CMP-nonulosonate, or bacteria that were incubated in CMP-Neu5Ac only. Y-axis, % survival.
We next determined the effects of incorporation of the CMP salts of five structural analogues of Neu5Ac (Neu5Gc, Neu5Ac9Ac, Neu5Ac9Az, Neu5Gc8Me and Leg5Ac7Ac) on the ability of N. gonorrhoeae F62 ΔIgtD to resist complement-dependent killing by normal human serum at concentrations of 10, 6.7 or 3.3%. Bacteria were grown either in media alone, or media supplemented with 30 μM (˜20 μg/ml) of each of the CMP-nonulosonates.
The ability of two of the CMP-nonulosonates, CMP-Neu5Ac9Az and CMP-Leg5Ac7Ac, to counter the ability of CMP-Neu5Ac to enhance serum resistance of N. gonorrrhoeae was then examined. The analogues were added at concentrations of 20, 2 or 0.2 μg/ml to growth media 15 min after the addition of CMP-Neu5Ac (20 μg/ml) to F62 ΔIgtD.
Serum bactericidal assays were performed as described previously (11). Bacteria harvested from an overnight culture on chocolate agar plates were grown in liquid media containing the specified concentration of CMP-nonulosonate as specified for each experiment. Approximately 2000 CFU of F62 ΔIgtD were incubated with NHS (concentration specified for each experiment). The final reaction volumes were maintained at 150 μl. […]

T1 sequence (P72074 whole entry): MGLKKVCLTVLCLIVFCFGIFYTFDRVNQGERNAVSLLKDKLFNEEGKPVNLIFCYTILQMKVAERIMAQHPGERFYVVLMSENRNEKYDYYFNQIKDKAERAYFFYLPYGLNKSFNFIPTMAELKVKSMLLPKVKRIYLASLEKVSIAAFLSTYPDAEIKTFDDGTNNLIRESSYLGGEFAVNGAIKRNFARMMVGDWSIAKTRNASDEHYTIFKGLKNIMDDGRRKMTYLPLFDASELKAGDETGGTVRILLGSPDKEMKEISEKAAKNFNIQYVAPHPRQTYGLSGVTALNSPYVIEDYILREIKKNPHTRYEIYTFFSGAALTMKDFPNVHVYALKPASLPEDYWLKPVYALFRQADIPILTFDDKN

SMILES	mAb 3F11 binding / incorporation of nonulosonate onto LNT LOS (use as Lst substrate) [1]	fH binding ([2]; CMP-nonulosonate 20 μg/ml or 30 μM, vs unsialylated F62 ΔIgtD)	fH binding ([2]; CMP-sialic acid 0.5 to 4 μg/ml, lowest concentration tested)	fH binding ([2]; summary Table 1)	resistance to 10% serum ([3]; CMP-nonulosonate 3 μM (~2 μg/ml), 10% serum)	Serum resistance ([3]; summary Table 1)	bacterial survival / serum resistance ([3]; all serum concentrations tested (10, 6.7, 3.3%), 30 μM)
Nc1ccn([C@@H]2O[C@H](COP(=O)(O)O[C@@]3(C(=O)O)C[C@H](O)[C@@H](NC(=O)CO)[C@H]([C@H](O)[C@H](O)CO)O3)[C@@H](O)[C@H]2O)c(=O)n1 [CMP-Neu5Gc, CMP-5-hydroxyacetamido-3,5-dideoxy-D-glycero-D-galacto-nonulosonic acid, reference compound]	decreased binding of mAb 3F11	Maximal	near maximal	high	conferred resistance	high (>100% survival in 10% serum)	
CC(=O)N[C@H]([C@@H]1O[C@](OP(=O)(O)OC[C@H]2O[C@@H](n3ccc(N)nc3=O)[C@H](O)[C@@H]2O)(C(=O)O)C[C@H](O)[C@@H]1NC(C)=O)[C@H](C)O [CMP-Pse5Ac7Ac, reference compound]	not incorporated; also recorded: not utilized						did not affect serum resistance
